For experiment [1], the system named is Human neutrophils (polymorphonuclear leukocytes, PMN) on HUVEC monolayers. The experiment in a line: Neutrophil (PMN) transendothelial migration across HUVEC monolayers with fMLP. It is filed as cell-based. As to conditions: 10^-7 M fMLP, vs control with fMLP, FIGS. 10-11. The protocol: A further assay for evaluating modulating agent activity involves determining an effect of a candidate agent on neutrophil migration on endothelial cells. Within such assays, endothelial cells (e.g., HUVEC) may be harvested and cultured using standard techniques. Cells are grown to confluence on 8.0 μm pore cell culture inserts (Falcon, Franklin Lake, N.J.) essentially as described by Ohno et al., Inflammation 21(3):313-24, 1997. Radiolabeled human neutrophils (polymorphonuclear leukocytes, PMN) are added to the apical surface of HUVEC monolayers and allowed to migrate. Migration assays are generally performed in the presence of 10^−7 M N-formyl-methionyl-leucyl-phenylalanine (fMLP), a chemoattractant that causes the leukocytes to undergo diapedesis. PMN migration may be quantitated as follows: [formula]
Human umbilical vein endothelial cells (HUVEC) were harvested from umbilical cords by 0.2% collagenase treatment essentially as described by Yoshida et al., Am. […]
For neutrophil diapedesis experiments, HUVEC were grown to confluence on 8.0 μm pore cell culture inserts (Falcon, Franklin Lake, N.J.) essentially as described by Ohno et al., inflammation 21(3):313-24, 1997. […] The cells were then washed twice with cold phosphate-buffered saline (PBS), spun at 250 g for 8 minutes to remove unincorporated radioactivity and resuspended in PBS. […]
PMN migration was quantitated as follows: [formula]

For a further experiment, the system named is HUVEC. As to the kind of experiment: Immunofluorescence analysis of occludin in HUVEC. It is filed as cell-based, human. As to conditions: 200 μg/mL peptide vs vehicle; FIG. 12B. The method, then: For immunofluorescence analysis of occludin, HUVEC grown on glass coverslips were treated with vehicle (FIG. 12A) or 200 μg/mL peptide 76 (FIG. 12B). Cells were fixed with methanol and acetone and stained for occludin (Kevil et al., Microcirculation 5:197-210, 1998). Immunofluorescent staining was performed with anti-occludin polyclonal antibody (Zymed, San Francisco, Calif. used at a concentration of 4 μg/ml) and Cy3-conjugated goat anti-rabbit secondary Ab (Jackson Labs, Westgrove, Pa., used at a 1:250 dilution), and analyzed by fluorescence microscope. […] The photographs shown are representative of at least 20 different fields observed in each experiment and of three independent experiments. Bar=25 μm.

For a further experiment, the system named is Adult rats. As to the kind of experiment: Miles assay for vascular permeability (Evans blue). The format is in vivo. As to conditions: rat, 100 μg/ml peptide subdermal, OD at 620 nm; compared with PBS and the N-acetyl/C-amide peptides; FIG. 6, FIG. 8. The protocol: The ability of an agent to modulate cell adhesion may generally be evaluated in vivo by assessing the effect on vascular permeability utilizing the Miles assay (McClure et al., J. Pharmacological & Toxicological Methods 32:49-52, 1994). Briefly, a candidate modulating agent may be dissolved in phosphate buffered saline (PBS) at a concentration of 100 μg/ml. Adult rats may be given 100 μl subdermal injections of each peptide solution into their shaved backs, followed 15 minutes later by a single 250 μl injection of 1% Evans blue dissolved in PBS into their tail veins. The subdermal injection sites may be visually monitored for the appearance of blue dye. Once the dye appears (about 15 minutes after injection), each subdermal injection site may be excised, weighed, and placed in 1 ml dimethylformamide for 24 hours to extract the dye. The optical density of the dye extracts may then be determined at 620 nm. In general, the injection of 0.1 ml of modulating agent (at a concentration of 0.1 mg/ml) into the backs of rats causes an increase of dye accumulation at the injection sites of at least 50%, as compared to dye accumulation at sites into which PBS has been injected.
The ability of cyclic and linear peptides to increase vascular permeability was assessed utilizing the Miles assay (McClure et al., J. Pharmacological & Toxicological Meth. 32:49-521994). The peptides were dissolved in phosphate buffered saline (PBS) at a concentration of 100 μg/ml. Adult rats were given 100 μl subdermal injections of each peptide solution into their shaved backs, followed 15 minutes later by a single 250 μl injection of 1% Evans blue dissolved in PBS into their tail veins. The subdermal injection sites were visually monitored for the appearance of blue dye. Once the dye appeared (15 minutes after injection), each subdermal injection site was excised, weighed, and placed in 1 ml dimethylformamide for 24 hours to extract the dye. The optical density of the dye extracts was determined at 620 nm. […]

Consider “H-CLYHYC-OH (also: cyclic, kind not given here) [Peptide 5]”, for which, in experiment [1], the “fMLP-stimulated neutrophil transendothelial migration” value was “increase fMLP-stimulated transendothelial migration”. For the same substance, the “occludin staining and intercellular gaps in HUVEC” value with HUVEC was “gaps between adjacent endothelial cells and the lack of junctional proteins at these gaps”. In addition, the “optical densities of dimethylformamide dye extracts from excised injection sites” value in the experiment with Adult rats is recorded as “more dye was extracted”.

These data come from patent publication US6797807B1, “Compounds and methods for cancer therapy” (Adherex Technologies, Inc., priority 1997, dated 2004).
